# According to ChEMBL document CHEMBL1201862, “PubChem BioAssay data set” (2004):
#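 Method: 48-hour compound exposure of cells in 96-well plates, five concentrations, linear interpolation of endpoints. Abbreviation: GI50, concentration required for 50% inhibition of growth.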 Active and inactive are the calls of the source. Rule as the data show it: active = GI50 up to about 1.1 µM and inactive = higher.
# Tests used:
# Assay in all cases: DTP human tumour cell line panel, 48 h
# [1] = test system: 786-0
# [2] = test system: A549
# [3] = test system: CAKI-1
# [4] = test system: CCRF-CEM
# [5] = test system: COLO 205
# [6] = test system: DLD-1
# [7] = test system: DMS-114
# [8] = test system: DMS-273
# [9] = test system: EKVX
# [10] = test system: HCC 2998
# [11] = test system: HCT-116
# [12] = test system: HOP-18
# [13] = test system: HOP-62
# [14] = test system: HOP-92
# [15] = test system: HT-29
# [16] = test system: IGROV-1
# [17] = test system: K562
# [18] = test system: KM-20L2
# [19] = test system: KM12
# [20] = test system: LXFL 529
# [21] = test system: M19-MEL
# [22] = test system: MOLT-4
# [23] = test system: Malme-3M
# [24] = test system: NCI-H226
# [25] = test system: NCI-H23
# [26] = test system: NCI-H460
# [27] = test system: NCI-H522
# [28] = test system: OVCAR-3
# [29] = test system: OVCAR-4
# [30] = test system: OVCAR-8
# [31] = test system: SF-268
# [32] = test system: SF-295
# [33] = test system: SF-539
# [34] = test system: SK-MEL-2
# [35] = test system: SK-MEL-5
# [36] = test system: SK-OV-3
# [37] = test system: SN12C
# [38] = test system: SNB-19
# [39] = test system: SNB-78
# [40] = test system: SR
# [41] = test system: SW-620
# [42] = test system: U-251
# [43] = test system: UACC-62
# [44] = test system: A498
# [45] = test system: ACHN
# [46] = test system: BT-549
# [47] = test system: DU-145
# [48] = test system: HCT-15
# [49] = test system: HL-60
# [50] = test system: Hs-578T
# [51] = test system: LOX IMVI
# [52] = test system: M14
# [53] = test system: MCF7
# [54] = test system: MDA-MB-231
# [55] = test system: MDA-MB-435
# [56] = test system: MDA-N
# [57] = test system: NCI/ADR-RES
# [58] = test system: OVCAR-5
# [59] = test system: PC-3
# [60] = test system: RPMI-8226
# [61] = test system: RXF 393
# [62] = test system: SK-MEL-28
# [63] = test system: SNB-75
# [64] = test system: T47D
# [65] = test system: TK-10
# [66] = test system: UO-31
# [67] = test system: XF498
smiles,measurement,setting,value
Cc1c2cc[n+](C)cc2c(C)c2c1[nH]c1ccc(OCC(F)(F)F)cc12,GI50,[1],378 nM (active)
same,GI50,[2],1530 nM (inactive)
same,GI50,[3],8340 nM (inactive)
same,GI50,[4],4160 nM (inactive)
same,GI50,[5],1460 nM (inactive)
same,GI50,[6],1400 nM (inactive)
same,GI50,[7],1420 nM (inactive)
same,GI50,[8],1250 nM (inactive)
same,GI50,[9],15000 nM (inactive)
same,GI50,[10],5050 nM (inactive)
same,GI50,[11],3950 nM (inactive)
same,GI50,[12],1960 nM (inactive)
same,GI50,[13],789 nM (active)
same,GI50,[14],2430 nM (inactive)
same,GI50,[15],2280 nM (inactive)
same,GI50,[16],2270 nM (inactive)
same,GI50,[17],2650 nM (inactive)
same,GI50,[18],3150 nM (inactive)
same,GI50,[19],2530 nM (inactive)
same,GI50,[20],501 nM (active)
same,GI50,[21],2140 nM (inactive)
same,GI50,[22],2610 nM (inactive)
same,GI50,[23],2020 nM (inactive)
same,GI50,[24],499 nM (active)
same,GI50,[25],1230 nM (inactive)
same,GI50,[26],1850 nM (inactive)
same,GI50,[27],1630 nM (inactive)
same,GI50,[28],2590 nM (inactive)
same,GI50,[29],2450 nM (inactive)
same,GI50,[30],798 nM (active)
same,GI50,[31],376 nM (active)
same,GI50,[32],327 nM (active)
same,GI50,[33],1250 nM (inactive)
same,GI50,[34],3400 nM (inactive)
same,GI50,[35],1550 nM (inactive)
same,GI50,[36],3890 nM (inactive)
same,GI50,[37],277 nM (active)
same,GI50,[38],817 nM (active)
same,GI50,[39],622 nM (active)
same,GI50,[40],2670 nM (inactive)
same,GI50,[41],3350 nM (inactive)
same,GI50,[42],256 nM (active)
same,GI50,[43],6820 nM (inactive)
Nc1cccc(-c2cc(O)c3cc4c(cc3n2)OCO4)c1,GI50,[1],2160 nM (inactive)
same,GI50,[44],2450 nM (inactive)
same,GI50,[2],4090 nM (inactive)
same,GI50,[45],3870 nM (inactive)
same,GI50,[46],> 100000 nM (inactive)
same,GI50,[3],3680 nM (inactive)
same,GI50,[4],665 nM (active)
same,GI50,[5],384 nM (active)
same,GI50,[8],889 nM (active)
same,GI50,[47],640 nM (active)
same,GI50,[9],3270 nM (inactive)
same,GI50,[10],1830 nM (inactive)
same,GI50,[11],389 nM (active)
same,GI50,[48],1230 nM
same,GI50,[49],1930 nM (inactive)
same,GI50,[12],40200 nM (inactive)
same,GI50,[13],1870 nM (inactive)
same,GI50,[14],1020 nM (active)
same,GI50,[15],1740 nM (inactive)
same,GI50,[50],389 nM (active)
same,GI50,[17],792 nM (active)
same,GI50,[19],593 nM (active)
same,GI50,[51],1230 nM (inactive)
same,GI50,[20],527 nM (active)
same,GI50,[52],993 nM (active)
same,GI50,[21],931 nM (active)
same,GI50,[53],592 nM (active)
same,GI50,[54],1730 nM (inactive)
same,GI50,[55],160 nM (active)
same,GI50,[56],216 nM (active)
same,GI50,[22],2070 nM (inactive)
same,GI50,[23],318 nM (active)
same,GI50,[24],1850 nM (inactive)
same,GI50,[25],2860 nM (inactive)
same,GI50,[26],4280 nM (inactive)
same,GI50,[27],273 nM (active)
same,GI50,[57],581 nM (active)
same,GI50,[28],188 nM (active)
same,GI50,[29],> 61900 nM (inactive)
same,GI50,[58],> 100000 nM (inactive)
same,GI50,[30],2110 nM (inactive)
same,GI50,[59],644 nM (active)
same,GI50,[60],6350 nM (inactive)
same,GI50,[61],1020 nM (active)
same,GI50,[31],1770 nM (inactive)
same,GI50,[32],2870 nM (inactive)
same,GI50,[33],544 nM (active)
same,GI50,[62],2190 nM (inactive)
same,GI50,[34],450 nM (active)
same,GI50,[35],427 nM (active)
same,GI50,[36],1280 nM (inactive)
same,GI50,[37],4590 nM (inactive)
same,GI50,[38],2190 nM (inactive)
same,GI50,[63],99.5 nM (active)
same,GI50,[39],834 nM (active)
same,GI50,[40],191 nM (active)
same,GI50,[41],519 nM (active)
same,GI50,[64],> 100000 nM (inactive)
same,GI50,[65],6640 nM (inactive)
same,GI50,[42],1810 nM (inactive)
same,GI50,[43],402 nM (active)
same,GI50,[66],12500 nM (inactive)
same,GI50,[67],7260 nM (inactive)
